{
  "source": "patent US20140227173A1",
  "about": "“CANCER TREATMENT WITH GAMMA-SECRETASE INHIBITORS” (The Johns Hopkins University, priority 2006, published 2014)",
  "key": {"[1]": {"tested_on": "panel of 10 human pancreatic cancer cell lines", "assay": "MTT growth assay", "assay_type": "cell-based", "settings": "96 hours; dosages of 2, 5, and 10 μM"}, "GBM neurospheres": {"tested_on": "GBM neurospheres", "assay": "Proliferation (Ki67 index) in the Nestin positive population of GBM neurospheres", "assay_type": "cell-based", "from_the_text": "It has been shown that the Notch signaling pathway regulates normal stem cells in the Central Neural System (CNS), and that GBMs contain cancer stem cells (CSCs) with higher Notch activity (Cancer Research, 64:7011-21, 2004; Cancer Cell, 9:391-403, 2006). However, it has not been known if Notch pathway blockade could target CSCs in GBM. […] In the present study, we used GBM neurospheres to examine the effects of Notch pathway blockade in GBM. […] Furthermore, overexpression of an active form of Notch2 (NICD2) increases tumor growth in vitro."}},
  "data": [
    {"smiles": "O=S(=O)(NC1C2CCC1Cc1ccccc1C2)c1cccs1", "note": "(stereo not drawn) [GSI-18, [11-endo]-N-(5,6,7,8,9,10-hexahydro-6,9-methanobenzo[α][8]annulen-11-yl)-thiophene-2-sulfonamide]", "values": [
      {"measurement": "in vitro growth measured by MTT assays", "setting": "[1]", "result": "modest to minimal effects on growth"},
      {"measurement": "proliferation (Ki67 index) in the Nestin positive population", "setting": "GBM neurospheres", "result": "decrease in proliferation (Ki67 index)"}
    ]}
  ]
}
